Laboratory results from PMC9964390, “Design, Synthesis and Phenotypic Profiling of Simplified Gedatolisib Analogues” (Pharmaceuticals, 2023).
Like-named read-outs stand apart in the source and are kept apart here.

What was measured:
[1] = test system: PI3K activation and phosphorylation in CCRF-CEM cell line; assay: Muse PI3K Activation Dual Detection Kit; assay type: cell-based, human
Description: The methodology evaluates the activation and phosphorylation of PI3K and was performed from the labelling with the Guava Muse Luminex® PI3K Activation Dual Detection Kit (catalog n^o. MCH200103, Luminex) containing the anti-AKT/PKB-PECy5 antibody to measure total PI3K and the anti-phospho-AKT (Ser473)-Alexa Fluor® 555 antibody for measurement of activated PI3K.
Following 48 h of incubation in an incubator at 37 °C with 5% CO2, 1 mL of the cell solution was transferred to an Eppendorf tube, washed with PBS and centrifuged at 300× g for 5 min. The supernatant was discarded, and the pellet formed was resuspended in 500 µL of PBS. The samples were again centrifuged at 300× g for 5 min and the supernatant discarded.
Then the cell solutions were resuspended in 200 µL of assay buffer (Part no. CS202124), followed by the addition of 200 µL of fixation buffer (Part n^o. CS202122), ending up with a total volume of 400 µL per sample. The samples were incubated for 5 min on ice and centrifuged at 300× g for 5 min and the supernatant discarded.
Cells were permeabilized by adding 200 µL of ice-cold permeabilization buffer (Part n^o. CS202125) and then incubated on ice for 5 min and centrifuged at 300× g for 5 min, and the supernatant was discarded. The formed pellets were resuspended in 450 µL of assay buffer and vortexed at medium speed. In total, 90 µL of the solution from each sample was aliquoted into a new tube, and 10 µL of the cocktail solution containing Anti-phospho-Akt (Ser473), Alexa Fluor®555 and Anti-Akt/PKB, Pecy5 was added. The samples were homogenised and incubated for 30 min in the dark at room temperature.
After the incubation step, 100 µL of assay buffer was added per sample and centrifuged at 300× g for 5 min, and the supernatant was discarded. The formed pellets were resuspended in 200 µL of assay buffer and vortexed, and the samples were read in Guava Muse Luminex®. Data from three independent experiments performed in duplicate were analysed in the Prism6 program to determine the percentage of cells expressing activated and inactivated PI3K.

[2] = PBMC viability assay (72 h MTT); assay type: cell-based, human; set-up: Emax at 72 h: dose or concentration left out as unconfirmed; settings: human; for viability at 72 h, 0.3 µM: 0.3 µM (printed 0.3M); for viability at 72 h, 3 µM: 3 µM (printed 3M)
Description: Donor blood was collected and EDTA (ethylenediamine tetraacetic acid) was added to the sterile laminar flow in a 1:20 ratio. In a 15 mL falcon tube, 4.5 mL of Ficoll gradient was added, and then 9 mL of blood was added over the gradient in a 1:2 ratio. The tubes were centrifuged for 40 min at a speed of 750× g with an acceleration of 2 and a brake of 0. The ring of mononuclear cells formed was collected and added to a new tube.
Tubes with PBMCs were centrifuged in an incomplete RPMI medium for 10 min at 580× g with an acceleration of 8 and a brake of 9. The supernatant was discarded, and the cells were resuspended in 1 mL of RPMI medium supplemented with 20% […]. PBMCs were added to 96-well plates at a concentration of 1 × 10^5 cells per well. […]
After incubation, each well received 20 µL of MTT (5 mg/mL), followed by incubation for 4 h in the CO2 oven and centrifugation for 12 min at 1200× g. The supernatant from each well was taken, and 100 µL of isopropyl alcohol was added to solubilize the formazan crystals. The absorbance of the plates was measured at 570 nm in the Flex Station equipment.

MOLT-4 = assay: MTT cell viability assay; assay type: cell-based, human; settings: for CC50 / Emax: Homo sapiens; for CC50: 95% confidence interval in brackets; for Emax: read-out: Emax (maximum effect at maximum concentration used); for loss of cytotoxic potency at 48 h versus 72 h (MTT): MOLT-4
Description: (§1) For the evaluation of cellular cytotoxicity in cancer cell lines, the compounds were tested at concentrations ranging from 0.00003 μM to 150 μM. Immortalized cancer cells were selected: PC-3 (PTEN-mutated prostate adenocarcinoma), MCF-7 (PI3KCA-mutated breast carcinoma), K562 (P53-mutated chronic myeloid leukemia), CCRF-CEM (acute lymphoblastic leukemia with mutation in PTEN) and MOLT-4 (acute lymphoblastic leukemia with mutation in PI3KR1/PTEN). Peripheral blood mononuclear cells (PBMCs) were used to determine the cytotoxic selectivity index (SI). All immortalized cells were cultured in RPMI 1640 medium with 10% (v/v) FBS, streptomycin + penicillin, at 37 °C in a humidified incubator containing 5% CO2.
(§2) Cell viability was assessed by the MTT assay. The lines selected for this study were plated according to their respective densities, which ranged from 3 × 10^4 to 4 × 10^4 cells per well. Subsequently, they were treated with test compounds at different concentrations (0.00003 μM to 150 μM), gedatolisib and GSK-1059615.
(§3) After incubation, the plates are centrifuged at 440× g for 10 min. Then, 110 μL of the supernatant was withdrawn and each well received 10μL of the MTT solution. The plate was again incubated in an oven at 37 °C and 5% CO2 for 3 to 4 h. At the end of the incubation time, 100 μL of SDS-HCL detergent was added to solubilize the formazan crystals. The plate was shaken on an automatic overnight shaker and then read at a wavelength of 595 nm on the Molecular Devices Spectramax M5 plate reader.

CCRF-CEM = assay: MTT cell viability assay; assay type: cell-based, human; settings: for CC50 / Emax: Homo sapiens; for CC50: 95% confidence interval in brackets; for Emax: read-out: Emax (maximum effect at maximum concentration used)
Description: as §1, §2, §3

[3] = test system: CCRF-CEM (human leukemia cell line); set-up: method as in Gazi and coworkers [14]; settings: ref Gazi and coworkers [14]; cited from earlier work
[4] = test system: MCF7 (breast cancer cells); set-up: method as in Mallon and coworkers [15]; settings: ref Mallon and coworkers [15]; cited from earlier work
[5] = PBMC, read-out: % cell viability
[6] = peripheral blood mononuclear cells (PBMCs), PBMC, read-out: % cell viability

Row | SMILES | CC50 (MOLT-4; MOLT-4, 48 h MTT) | Emax (MOLT-4; MOLT-4, 48 h MTT) | CC50 (MOLT-4; MOLT-4, 72 h MTT) | Emax (MOLT-4; MOLT-4, 72 h MTT) | loss of cytotoxic potency at 48 h versus 72 h (MTT) (MOLT-4) | loss of cytotoxic potency at 48 h versus 72 h (MTT) (CCRF-CEM) | CC50 (CCRF-CEM; 48 h MTT) | Emax (CCRF-CEM; 48 h MTT) | CC50 (CCRF-CEM; 72 h MTT) | Emax (CCRF-CEM; 72 h MTT) | other results
1 | c1ccc(N2CCN(c3nc(N4CCCNCC4)nc(N4CCOCC4)n3)CC2)cc1 [5f, 4-(4-(1,4-Diazepan-1-yl)-6-(4-phenylpiperazin-1-yl)-1,3,5-triazin-2-yl)morpholine] | 36.5 µM | 80% | 9.76 µM | 93% | less than 4 fold | less than 2 fold | 11.1 µM | 69% | 6.25 µM | 93% | percentage of inactivated cells raised to ([1]; concentration 10 times higher than its CC50): 65%; percentage of inactivated cells raised to ([1]; tested at its CC50): 30%; Emax at 72 h [2]: 26%; viability at 72 h, 0.03 µM ([2]; PBMC, 0.03 µM (printed 0.03M), read-out: % cell viability): 92%; viability at 72 h, 0.3 µM [2, 5]: 88%; viability at 72 h, 3 µM [2, 5]: 91%; viability at 72 h, 30 µM ([2]; PBMC, 30 µM (printed 30M), read-out: % cell viability): 75%; viability at 72 h, 100 µM ([2]; PBMC, 100 µM (printed 100M), read-out: % cell viability): 73%
2 | CN(C)C1CCN(C(=O)c2ccc(NC(=O)Nc3ccc(-c4nc(N5CCOCC5)nc(N5CCOCC5)n4)cc3)cc2)CC1 [Gedatolisib, gedatolisib] | 0.15 µM | 92% | 0.02 µM | 93% | ~10 fold | ~10 fold | 0.14 µM | 94% | 0.03 µM | 90% | increase of the percentage of cells in the inactivated state ([1]; at its CC50 (~6 μM) and 10 times lower (0.6 μM)): about 75%; viability at 72 h, 0.0003 µM ([2]; peripheral blood mononuclear cells (PBMCs), PBMC, 0.0003 µM (printed 0.0003M), read-out: % cell viability): 89%; viability at 72 h, 0.003 µM ([2]; peripheral blood mononuclear cells (PBMCs), PBMC, 0.003 µM (printed 0.003M), read-out: % cell viability): 85%; viability at 72 h, 0.3 µM [2, 6]: 80%; viability at 72 h, 3 µM [2, 6]: 85%; viability at 72 h, 50 µM ([2]; peripheral blood mononuclear cells (PBMCs), PBMC, 50 µM (printed 50M), read-out: % cell viability): 67%; CC50 [3]: 23 nM; CC50 [4]: 36 nM
